Assay results published in patent US20260166039A1 (SCHRÖDINGER, INC., priority 2022, published 2026).

Target: T1, Wee1 kinase domain (Homo sapiens, UniProt P30291)
T1 construct: Wee1 kinase domain was purchased from Carna (catalog #05-177); purchased Carna 05-177
Test: Wee1 Kinase Biochemical Assay (ADP-Glo)
Conditions: 15 uM ATP
Summary of the method: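 Compounds tested against 1 nM Wee1 kinase domain in Tris buffer containing 20 mM MgCl2, BSA and 2 mM DTT, with 15 uM ATP and poly(Lys,Tyr) substrate for 4 h at 25 °C. Luminescent ADP detection gave percent inhibition, normalized to DMSO and saturating inhibitor.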

[1] = class symbols, 1 nM Wee1 enzyme, 4 hours at 25° C.

T1 sequence (P30291 299-569 limits assumed): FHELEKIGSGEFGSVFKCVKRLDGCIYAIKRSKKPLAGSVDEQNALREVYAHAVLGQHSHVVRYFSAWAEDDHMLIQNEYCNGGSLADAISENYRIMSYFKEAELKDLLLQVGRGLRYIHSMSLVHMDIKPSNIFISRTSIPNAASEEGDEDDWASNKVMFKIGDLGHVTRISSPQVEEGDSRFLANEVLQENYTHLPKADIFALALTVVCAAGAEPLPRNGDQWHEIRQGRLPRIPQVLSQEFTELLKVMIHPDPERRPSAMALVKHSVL

Row | Structure (SMILES) | IC50 [1] | IC50 (Wee1 kinase domain, ADP-Glo) | also measured
1 | CC1(C)C[C@H]2N(c3ccccn3)c3nc(Nc4ccc(N5CCN6CC[C@H]5C6)cc4)ncc3[C@@]2(C)CO1 [Example 809, (4bR,8aR)-N-(4-((5S)-1,4-diazabicyclo[3.2.1]octan-4-yl)phenyl)-4b,7,7-trimethyl-9-(pyridin-2-yl)-4b,5,7,8,8a,9-hexahydropyrano[3′,4′:4,5]pyrrolo[2,3-d]pyrimidin-2-amine] | < 10 nM |  | 
2 | CC1(C)C[C@H]2N(c3cccc(N4CCOC4=O)n3)c3nc(Nc4ccc(N5CCNCC5)cc4)ncc3[C@@]2(C)CO1 (single isomer, unassigned) [Example 601] | < 10 nM |  | 
3 | CNCc1cccc(N2c3nc(Nc4ccc([C@H]5CC(=O)N(C)C5)cc4)ncc3[C@]3(C)COC(C)(C)C[C@H]23)n1 (single isomer, unassigned) [Example 67] |  | 100 to 1000 nM | 
4 | CNCc1cccc(N2c3nc(NC(=O)C4CC4)ncc3[C@@]3(C)COC(C)(C)C[C@@H]23)n1 (single isomer, unassigned) [Example 762] | 10 to 100 nM |  | 
5 | CN1CC[C@@H](Oc2ccc(Nc3ncc4c(n3)N(c3cccc(C(C)(C)O)n3)[C@@H]3CC(C)(C)OC[C@]43C)cc2)C1 (single isomer, unassigned) [Example 424] | 10 to 100 nM |  | 
6 | C[C@H]1COC(=O)N1c1cccc(N2c3nc(Nc4ccc([C@@H]5CCN(C)C5)cc4)ncc3[C@@]3(C)COCC[C@@H]23)n1 [Example 794, (S)-4-methyl-3-(6-((4bR,8aR)-4b-methyl-2-((4-((S)-1-methylpyrrolidin-3-yl)phenyl)amino)-4b,7,8,8a-tetrahydropyrano[3′,4′:4,5]pyrrolo[2,3-d]pyrimidin-9(5H)-yl)pyridin-2-yl)oxazolidin-2-one] | < 10 nM |  | 
7 | CC1(C)C[C@H]2N(c3cccc(N=S(C)(C)=O)n3)c3nc(Nc4ccc(N5CCN6CCC5C6)cc4)ncc3[C@@]2(C)CO1 (single isomer, unassigned) [Example 511] | < 10 nM |  | 
8 | C[C@H]1COC(=O)N1c1cccc(N2c3nc(Nc4ccc(C5CCN(C)CC5)nc4)ncc3[C@]3(C)COC(C)(C)C[C@H]23)n1 (single isomer, unassigned) [Example 296] |  | < 10 nM | 
9 | CNCc1cccc(N2c3nc(Nc4ccc([C@@H]5CNC(=O)C5)cc4)ncc3[C@]3(C)COC(C)(C)C[C@H]23)n1 (single isomer, unassigned) [Example 64] |  | 10 to 100 nM | 
10 | CC1(C)C[C@@H]2N(c3cccc(N=S(C)(C)=O)n3)c3nc(Nc4ccc(O[C@H]5CCNC5)cc4)ncc3[C@]2(C)CO1 (single isomer, unassigned) [Example 154] |  | 100 to 1000 nM | 
11 | CC(C)n1ccc(Nc2ncc3c(n2)N(c2cccc(N=S(C)(C)=O)n2)[C@@H]2CC(C)(C)OC[C@]32C)n1 (single isomer, unassigned) [Example 832] |  |  | IC50 (1 nM Wee1 enzyme, 4 hours at 25° C): < 10 nM
12 | CNc1ncc2c(n1)N(c1cccc(N=S(C)(C)=O)n1)[C@@H]1CC(C)(C)OC[C@]21C (single isomer, unassigned) [Example 723] | 10 to 100 nM |  | 
13 | CC1(C)C[C@@H]2N(c3cccc([C@H]4COCCN4)n3)c3nc(Nc4ccc(N5CCOCC5)cc4)ncc3[C@]2(C)CO1 [Example 732, (4bS,8aS)-4b,7,7-trimethyl-9-(6-((S)-morpholin-3-yl)pyridin-2-yl)-N-(4-morpholinophenyl)-4b,5,7,8,8a,9-hexahydropyrano[3′,4′:4,5]pyrrolo[2,3-d]pyrimidin-2-amine] | 10 to 100 nM |  | 
14 | CNCc1cccc(N2c3nc(Nc4ccc([C@H]5CCOC5)cc4)ncc3[C@]3(C)COC(C)(C)C[C@H]23)n1 (single isomer, unassigned) [Example 39] |  | 100 to 1000 nM | 
15 | CN1CCN(c2cccc(N3c4nc(Nc5ccc(N6CCOCC6)cc5)ncc4[C@]4(C)COC(C)(C)C[C@H]34)n2)CC1 (single isomer, unassigned) [Example 536] | 10 to 100 nM |  | 
16 | Cn1ncc(Nc2ncc3c(n2)N(c2cccc(N=S(C)(C)=O)n2)[C@@H]2CC(C)(C)OC[C@]32C)n1 (single isomer, unassigned) [Example 515] | < 10 nM |  | 
17 | CN1CC[C@H](n2cc(Nc3ncc4c(n3)N(c3cccc(N=S(C)(C)=O)n3)[C@H]3CC(C)(C)OC[C@@]43C)cn2)C1 (single isomer, unassigned) [Example 197] |  | 100 to 1000 nM | 

Now from value to compound, other results behind:

Row | IC50 [1] | IC50 (Wee1 kinase domain, ADP-Glo) | Structure (SMILES) | also measured
18 | 100 to 1000 nM |  | CN1CC[C@H]2CN(c3ccc(Nc4ncc5c(n4)N(c4cccc(N6CCCC6=O)n4)[C@H]4CC(C)(C)OC[C@@]54C)cc3)C[C@H]21 [Example 689, 1-(6-((4bS,8aS)-4b,7,7-trimethyl-2-((4-((3aS,6aS)-1-methylhexahydropyrrolo[3,4-b]pyrrol-5(1H)-yl)phenyl)amino)-4b,7,8,8a-tetrahydropyrano[3′,4′:4,5]pyrrolo[2,3-d]pyrimidin-9(5H)-yl)pyridin-2-yl)pyrrolidin-2-one] | 
19 |  | 10 to 100 nM | C[C@H]1COC(=O)N1c1cccc(N2c3nc(Nc4ccc(N5C[C@H]6C[C@@H]5CN6)cc4)ncc3[C@]3(C)COC(C)(C)C[C@H]23)n1 (single isomer, unassigned) [Example 276] | 
20 | 10 to 100 nM |  | CN1C[C@H]2C[C@@H]1CN2c1ccc(Nc2ncc3c(n2)N(c2cccc(N4CCOC4=O)n2)[C@H]2CC(C)(C)OC[C@@]32C)cc1 (single isomer, unassigned) [Example 592] | 
21 | 10 to 100 nM |  | CN1CC[C@H]2CN(c3ccc(Nc4ncc5c(n4)N(c4cccc(C(C)(C)O)n4)[C@H]4CC(C)(C)OC[C@@]54C)cc3)C[C@H]21 (single isomer, unassigned) [Example 440] | 
22 | < 10 nM |  | CN1CC2(C1)CN(c1ccc(Nc3ncc4c(n3)N(c3cccc(N5C(=O)OCC5(C)C)n3)[C@@H]3CC(C)(C)OC[C@]43C)cc1)C2 (single isomer, unassigned) [Example 785] | 
23 | 100 to 1000 nM |  | CC1(C)C[C@@H]2N(c3cccc(C4(F)CNC4)n3)c3nc(Nc4ccc(N5CCOCC5)cc4)ncc3[C@]2(C)CO1 (single isomer, unassigned) [Example 546] | 
24 | 100 to 1000 nM |  | CN1CC[C@H](Oc2ccc(Nc3ncc4c(n3)N(c3cccc(N5CCOC5=O)n3)[C@H]3CC(C)(C)OC[C@@]43C)cc2)C1 [Example 614, 3-(6-((4bS,8aS)-4b,7,7-trimethyl-2-((4-(((S)-1-methylpyrrolidin-3-yl)oxy)phenyl)amino)-4b,7,8,8a-tetrahydropyrano[3′,4′:4,5]pyrrolo[2,3-d]pyrimidin-9(5H)-yl)pyridin-2-yl)oxazolidin-2-one] | 
25 | 10 to 100 nM |  | CN1CC2(C1)CN(c1ccc(Nc3ncc4c(n3)N(c3cccc(N5CCOC5=O)n3)[C@H]3CC(C)(C)OC[C@@]43C)cc1)C2 [Example 708, 3-(6-((4bS,8aS)-4b,7,7-trimethyl-2-((4-(6-methyl-2,6-diazaspiro[3.3]heptan-2-yl)phenyl)amino)-4b,7,8,8a-tetrahydropyrano[3′,4′:4,5]pyrrolo[2,3-d]pyrimidin-9(5H)-yl)pyridin-2-yl)oxazolidin-2-one] | 
26 | < 10 nM |  | Cn1ccc(Nc2ncc3c(n2)N(c2cccc(N=S(C)(C)=O)n2)[C@@H]2CC(C)(C)OC[C@]32C)n1 (single isomer, unassigned) [Example 513] | 
27 |  | 100 to 1000 nM | CN1CCC(n2cc(Nc3ncc4c(n3)N(c3cccc(N=S(C)(C)=O)n3)[C@H]3CC(C)(C)OC[C@@]43C)cn2)C1 (stereo partly drawn) [Example 195, dimethyl((6-((4bS,8aS)-4b,7,7-trimethyl-2-((1-((R)-1-methylpyrrolidin-3-yl)-1H-pyrazol-4-yl)amino)-4b,7,8,8a-tetrahydropyrano[3′,4′:4,5]pyrrolo[2,3-d]pyrimidin-9(5H)-yl)pyridin-2-yl)imino)-16-sulfanone] | 
28 |  | 100 to 1000 nM | C[C@H]1COC(=O)N1c1cccc(N2c3nc(Nc4ccc(N5CCN(C)CC5)nn4)ncc3[C@]3(C)COC(C)(C)C[C@H]23)n1 (single isomer, unassigned) [Example 248] | 
29 | ≥ 1000 nM |  | CNCc1cccc(N2c3nc(Nc4ccc(=O)n(C)c4)ncc3[C@]3(C)COC(C)(C)C[C@H]23)n1 (single isomer, unassigned) [Example 461] | 
30 | 10 to 100 nM |  | Cc1cc(Nc2ncc3c(n2)N(c2cccc(N4CCCC4=O)n2)[C@H]2CC(C)(C)OC[C@@]32C)ccc1N1C[C@H]2C[C@@H]1CN2C [Example 659, 1-(6-((4bS,8aS)-4b,7,7-trimethyl-2-((3-methyl-4-((1R,4R)-5-methyl-2,5-diazabicyclo[2.2.1]heptan-2-yl)phenyl)amino)-4b,7,8,8a-tetrahydropyrano[3′,4′:4,5]pyrrolo[2,3-d]pyrimidin-9(5H)-yl)pyridin-2-yl)pyrrolidin-2-one] | 
31 |  | 10 to 100 nM | Cc1cc(Nc2ncc3c(n2)N(c2cccc(N=S(C)(C)=O)n2)[C@H]2CC(C)(C)OC[C@@]32C)ccc1[C@H]1CCN(C)C1 (single isomer, unassigned) [Example 148] | 
32 |  | 100 to 1000 nM | CNCc1cccc(N2c3nc(Nc4ccc(C5CCN(C)CC5)c(C)c4)ncc3[C@]3(C)COC(C)(C)C[C@H]23)n1 (single isomer, unassigned) [Example 71] | 
33 |  | 10 to 100 nM | C[C@H]1COC(=O)N1c1cccc(N2c3nc(Nc4ccc([C@@H]5CCNC5)cc4)ncc3[C@]3(C)COC(C)(C)C[C@H]23)n1 (single isomer, unassigned) [Example 274] | 
34 |  | 10 to 100 nM | CN1Cc2cc(Nc3ncc4c(n3)N(c3cccc(N=S(C)(C)=O)n3)[C@H]3CC(C)(C)OC[C@@]43C)ccc2C2(CC2)C1 (single isomer, unassigned) [Example 108] | 
35 |  | 100 to 1000 nM | [2H]C([2H])([2H])N1CCC(c2ccc(Nc3ncc4c(n3)N(c3cccc(N=S(C)(C)=O)n3)[C@H]3CC(C)(C)OC[C@@]43C)cc2)CC1 (single isomer, unassigned) [Example 161] | 
36 |  | 100 to 1000 nM | C[C@H]1COC(=O)N1c1cccc(N2c3nc(N)ncc3[C@]3(C)COC(C)(C)C[C@H]23)n1 (single isomer, unassigned) [Example 357] | 
37 |  | 10 to 100 nM | CC1(C)C[C@H]2N(c3cccc(N=S(C)(C)=O)n3)c3nc(Nc4ncccc4F)ncc3[C@@]2(C)CO1 (single isomer, unassigned) [Example 368] | 
